Data published in US10865384B2, “2,4,5-tri-substituted azole-based casein kinase 1 inhibitors as inducers for cardiomyogenesis” (AGENCY FOR SCIENCE, TECHNOLOGY AND RESEARCH, priority 2014, dated 2020).
Read-outs that look alike come from different tables or passages of the source.

Tests used:
p38α MAPK = p38α MAPK (Homo sapiens (Human), UniProt Q16539); experiment: HitHunter p38 MAP kinase binding assay
CK1δ = CK1δ (Homo sapiens (Human), UniProt P48730); experiment: LanthaScreen Eu kinase binding assay, CK1δ
Sequence of CK1δ (P48730 whole entry): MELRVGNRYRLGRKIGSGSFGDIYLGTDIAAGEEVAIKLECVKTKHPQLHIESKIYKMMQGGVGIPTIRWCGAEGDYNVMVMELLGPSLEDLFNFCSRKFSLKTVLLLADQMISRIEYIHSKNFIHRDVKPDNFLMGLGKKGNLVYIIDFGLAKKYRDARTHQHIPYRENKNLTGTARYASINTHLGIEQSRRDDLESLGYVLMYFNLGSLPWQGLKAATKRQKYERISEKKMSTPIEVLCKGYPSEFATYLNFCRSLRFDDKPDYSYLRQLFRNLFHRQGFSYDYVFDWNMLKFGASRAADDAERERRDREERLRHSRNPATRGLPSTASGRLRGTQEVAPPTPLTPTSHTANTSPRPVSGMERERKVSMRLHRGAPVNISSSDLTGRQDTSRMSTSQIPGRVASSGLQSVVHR

CK1ϵ = CK1ϵ (Homo sapiens (Human), UniProt P49674); experiment: LanthaScreen Eu kinase binding assay, CK1ϵ
Sequence of CK1ϵ (P49674 whole entry): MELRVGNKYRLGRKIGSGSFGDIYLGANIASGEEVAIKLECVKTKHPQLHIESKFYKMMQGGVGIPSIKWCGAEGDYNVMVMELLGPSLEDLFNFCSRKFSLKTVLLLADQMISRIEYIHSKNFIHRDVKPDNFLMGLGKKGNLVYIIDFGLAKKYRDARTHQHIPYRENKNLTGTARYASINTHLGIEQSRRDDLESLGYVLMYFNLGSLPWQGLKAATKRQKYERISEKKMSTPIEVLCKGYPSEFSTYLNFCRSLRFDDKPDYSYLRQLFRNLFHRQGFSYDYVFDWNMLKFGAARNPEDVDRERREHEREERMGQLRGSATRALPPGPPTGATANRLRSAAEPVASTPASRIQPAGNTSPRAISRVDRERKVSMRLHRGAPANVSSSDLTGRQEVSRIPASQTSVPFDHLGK

[1] = bound given in μM, read-out: p38α MAPK IC50

Sequence of p38α MAPK (Q16539 whole entry, looked up): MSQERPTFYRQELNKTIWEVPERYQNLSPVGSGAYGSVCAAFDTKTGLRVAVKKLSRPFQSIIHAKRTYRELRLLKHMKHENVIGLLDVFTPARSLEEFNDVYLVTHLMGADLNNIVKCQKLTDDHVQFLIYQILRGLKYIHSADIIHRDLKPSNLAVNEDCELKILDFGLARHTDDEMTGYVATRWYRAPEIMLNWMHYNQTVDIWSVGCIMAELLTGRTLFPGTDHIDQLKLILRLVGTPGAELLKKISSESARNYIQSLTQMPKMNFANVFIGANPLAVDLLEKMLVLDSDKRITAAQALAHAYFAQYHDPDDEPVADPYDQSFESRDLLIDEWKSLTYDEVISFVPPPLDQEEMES

| SMILES | IC50 (p38α MAPK; read-out: p38α MAPK IC50 ± SEM) [µM] | inhibition at 1 µM (CK1δ) [%] | IC50 (CK1δ; Table 3, read-out: IC50 CK1δ) [nM] | IC50 (CK1δ; read-out: CK1δ IC50 ± SEM) [nM] | IC50 (CK1ϵ; Table 3, read-out: IC50 Ck1ε) [nM] | IC50 (CK1ϵ; read-out: CK1ϵ IC50 ± SEM) [nM] | CK1ϵ inhibition at 1 μM (CK1ϵ) | also measured |
| --- | --- | --- | --- | --- | --- | --- | --- | --- |
| C[S+]([O-])c1ccc(-c2nc(-c3ccc(F)cc3)c(-c3ccncc3)o2)cc1 (centres unmarked) [OZ-06] | 0.314 ± 0.044 | 46 | – | – | – | – | – | inhibition at 1 µM (CK1ϵ): 54% |
| Cc1cccc(-c2nc(-c3ccc([S+](C)[O-])cc3)[nH]c2C2=CCOCC2)c1 (centres unmarked) [IM-16] | 0.073 ± 0.021 | – | 2540 | 2540 | 5610 | 5610 ± 319 | – | – |
| Cc1cccc(-c2nc(-c3ccccc3Cl)[nH]c2C2=CCOCC2)c1 [IM-12, 2-(2-chlorophenyl)-5(4)-(3,6-dihydro-2H-pyran-4-yl)-4(5)-(m-tolyl)-1H-imidazole] | 0.043 ± 0.002 | 23 | – | – | – | – | – | inhibition at 1 µM (CK1ϵ): 10% |
| Cc1cccc(-c2nc(-c3c(F)cccc3F)[nH]c2-c2ccncc2)c1 [IM-26] | 0.0043 ± 0.0017 | – | 78 | 78 ± 20 | 44 | 44 ± 5 | – | – |
| Fc1ccc(-c2nc(-c3ccc4ccccc4c3F)[nH]c2-c2ccncc2)cc1 [IM-29, 4-(2-(1-fluoronaphthalen-2-yl)-4(5)-(4-fluorophenyl)-1H-imidazol-5(4)-yl)pyridine] | 0.073 ± 0.017 | – | 15 | 15 ± 3 | – | 16 ± 3 | – | IC50 (CK1ϵ; read-out: IC50 Ck1ε): 16 nM |
| C[S+]([O-])c1ccc(-c2nc(-c3ccc(F)cc3)c(C3=CCOCC3)[nH]2)cc1 (centres unmarked) [IM-25] | 0.454 ± 0.067 | – | 1490 | 1490 ± 285 | 5890 | 5890 ± 180 | – | – |
| Fc1ccc(-c2nc(-c3ccccc3F)[nH]c2C2=CCOCC2)cc1 [IM-20, 5(4)-(3,6-dihydro-2H-pyran-4-yl)-2-(2-fluorophenyl)-4(5)-(4-fluorophenyl)-1H-imidazole] | 0.561 ± 0.141 | – | 1520 | 1520 ± 825 | 1140 | 1140 ± 287 | – | – |
| Cc1cccc(-c2nc(-c3ccccc3Br)[nH]c2C2=CCOCC2)c1 [IM-13, 2-(2-bromophenyl)-5(4)-(3,6-dihydro-2H-pyran-4-yl)-4(5)-(m-tolyl)-1H-imidazole] | 0.019 ± 0.002 | 23 | – | – | – | – | – | inhibition at 1 µM (CK1ϵ): 23% |
| Fc1c(-c2nc(-c3cccc(C(F)(F)F)c3)c(-c3ccncc3)[nH]2)ccc2ccccc12 [IM-02, 4-(2-(1-fluoronaphthalen-2-yl)-4(5)-(3-(trifluoromethyl)phenyl)-1H-imidazol-5(4)-yl)pyridine] | 2.66 ± 0.466 | – | – | – | – | – | No inhibition at 1 μM | CK1δ inhibition at 1 μM (CK1δ): No inhibition at 1 μM |
| Cc1cccc(-c2nc(-c3ccccc3F)[nH]c2-c2ccncc2)c1 [IM-19] | 0.0047 ± 0.0012 | – | 454 | 454 ± 28 | 150 | 150 ± 89 | – | – |
| Cc1ccc(-c2nc(-c3ccccc3F)[nH]c2C2=CCOCC2)cc1 [IM-21, 5(4)-(3,6-dihydro-2H-pyran-4-yl)-2-(2-fluorophenyl)-4(5)-(p-tolyl)-1H-imidazole] | 3.37 ± 0.824 | – | – | – | – | – | No inhibition at 1 μM | CK1δ inhibition at 1 μM (CK1δ): No inhibition at 1 μM |
| C[S+]([O-])c1ccc(-c2nc(-c3ccncc3)c(-c3ccc(F)cc3)o2)cc1 (centres unmarked) [OZ-12, 5-(4-fluorophenyl)-2-(4-(methylsulfinyl)phenyl)-4-(pyridin-4-yl)oxazole] | – | 34 | – | – | – | – | – | IC50 (p38α MAPK; [1]): > 5 µM; inhibition at 1 µM (CK1ϵ): 51% |
| Oc1ccc(-c2nc(-c3ccc(F)cc3)c(C3=CCOCC3)[nH]2)cc1 [IM-24, 4-(5(4)-(3,6-dihydro-2H-pyran-4-yl)-4(5)-(4-fluorophenyl)-1H-imidazol-2-yl)phenol] | 0.149 ± 0.033 | 14 | – | – | – | – | No inhibition at 1 μM | – |
| COc1ccc2cc(-c3nc(-c4cccc(C)c4)c(C4=CCOCC4)[nH]3)ccc2c1 [IM-09, 5(4)-(3,6-dihydro-2H-pyran-4-yl)-2-(6-methoxynaphthalen-2-yl)-4(5)-(m-tolyl)-1H-imidazole] | 2.35 ± 0.374 | 13 | – | – | – | – | No inhibition at 1 μM | – |
| Cc1cccc(-c2nc(-c3ccc([N+](=O)[O-])cc3)[nH]c2C2=CCOCC2)c1 [IM-17, 5(4)-(3,6-dihydro-2H-pyran-4-yl)-2-(4-nitrophenyl)-4(5)-(m-tolyl)-1H-imidazole] | 0.02 ± 0.002 | 17 | – | – | – | – | No inhibition at 1 μM | – |
| Cc1cccc(-c2nc(-c3ccccc3O)[nH]c2C2=CCOCC2)c1 [IM-14, 2-(5(4)-(3,6-dihydro-2H-pyran-4-yl)-4(5)-(m-tolyl)-1H-imidazol-2-yl)phenol] | – | – | – | – | – | – | – | IC50 (p38α MAPK; [1]): > 5 µM; CK1δ inhibition at 1 μM (CK1δ): No inhibition at 1 μM; inhibition at 1 µM (CK1ϵ): 3% |
| Fc1ccc(-c2nc(-c3c(F)cccc3F)[nH]c2C2=CCOCC2)cc1 [IM-23, 2-(2,6-difluorophenyl)-5(4)-(3,6-dihydro-2H-pyran-4-yl)-4(5)-(4-fluorophenyl)-1H-imidazole] | 0.055 ± 0.014 | – | 548 | 548 ± 116 | 751 | 751 ± 168 | – | – |
| Cc1cccc(-c2nc(-c3ccc(O)cc3)[nH]c2C2=CCOCC2)c1 [IM-15, 4-(5(4)-(3,6-dihydro-2H-pyran-4-yl)-4(5)-(m-tolyl)-1H-imidazol-2-yl)phenol] | 0.033 ± 0.002 | – | – | – | – | – | No inhibition at 1 μM | CK1δ inhibition at 1 μM (CK1δ): No inhibition at 1 μM |
| Fc1ccc(-c2nc(-c3ccc4ccccc4c3F)[nH]c2C2=CCOCC2)cc1 [IM-22, 5(4)-(3,6-dihydro-2H-pyran-4-yl)-2-(1-fluoronaphthalen-2-yl)-4(5)-(4-fluorophenyl)-1H-imidazole] | 2.31 ± 0.714 | 14 | – | – | – | – | No inhibition at 1 μM | – |
| Cc1cccc(-c2nc(-c3c(F)cccc3F)[nH]c2C2=CCOCC2)c1 [IM-18, 2-(2,6-difluorophenyl)-5(4)-(3,6-dihydro-2H-pyran-4-yl)-4(5)-(m-tolyl)-1H-imidazole] | 0.014 ± 0.002 | 3 | – | – | – | 1240 ± 437 | – | – |
| Cc1cccc(-c2nc(-c3ccccc3)[nH]c2C2=CCOCC2)c1 [IM-11, 5(4)-(3,6-dihydro-2H-pyran-4-yl)-2-phenyl-4(5)-(m-tolyl)-1H-imidazole] | 0.526 ± 0.137 | – | – | – | – | – | No inhibition at 1 μM | CK1δ inhibition at 1 μM (CK1δ): No inhibition at 1 μM |
| Cc1cccc(-c2nc(-c3ccc4ccccc4c3F)[nH]c2-c2ccncc2)c1 [IM-04] | 0.02 ± 0.007 | – | 490 | 490 ± 66 | 277 | 277 ± 40 | – | – |
| Cc1cccc(-c2nc(-c3ccccc3F)[nH]c2C2=CCOCC2)c1 [IM-06, 5(4)-(3,6-dihydro-2H-pyran-4-yl)-2-(2-fluorophenyl)-4(5)-(m-tolyl)-1H-imidazole] | 0.09 ± 0.02 | 3 | – | – | – | – | No inhibition at 1 μM | – |
| Cc1cccc(-c2nc(-c3ccc([S+](C)[O-])cc3)[nH]c2-c2ccncc2)c1 (centres unmarked) [IM-28] | 0.024 ± 0.009 | – | 708 | 708 ± 43 | 274 | 274 ± 7 | – | – |
| Cc1cccc(-c2nc(-c3ccc(O)cc3)[nH]c2-c2ccncc2)c1 [IM-27] | 0.0084 ± 0.003 | – | 1280 | 1280 ± 828 | 411 | 411 ± 120 | – | – |
| Cc1cccc(-c2nc(-c3ccc4ccccc4c3F)[nH]c2C2=CCOCC2)c1 [IM-03, 5(4)-(3,6-dihydro-2H-pyran-4-yl)-2-(1-fluoronaphthalen-2-yl)-4(5)-(m-tolyl)-1H-imidazole] | 0.262 ± 0.073 | – | – | – | – | – | No inhibition at 1 μM | CK1δ inhibition at 1 μM (CK1δ): No inhibition at 1 μM |
